Patent US20040019432A1, “System and method for integrated computer-aided molecular discovery” (priority 2002, published 2004)

Biological target: T1, thrombin (Bos taurus, UniProt P00735)
T1 construct: purchased Sigma T-3399
Test: biological assay for thrombin inhibitory activity (fluorogenic substrate)
Format: biochemical
Conditions: for inhibition at 50 µM: test probe concentration 50 μM; for inhibition at 100 µM: test probe concentration 100 μM
Method: The biological assay for thrombin inhibitory activity is detailed below. To Costar® 96-well black fluorescence plate wells is added 70 microliters of assay buffer, followed by 10 microliters of 1 millimolar substrate solution. Test probe (10 microliters in 30% DMSO) is then added to wells according to the desired concentrations for the assay. The mixture is incubated at 37° C. for 5 minutes, followed by addition of 10 microliters of thrombin (100 micrograms/mL in assay buffer), to make a final assay volume of 100 microliters. The plate is mixed gently and incubated 15 minutes at 37° C. Stop buffer (100 microliters) is added, and the plate is read by detecting fluorescence intensity (Excitation at 360 nm, Emission at 460 nm). Percent inhibition of test compound is calculated by comparison with control wells. “Assay buffer” is composed of 100 mM KH2PO4, 100 mM Na2HPO4, 1 mM EDTA, 0.01% BRIJ-35, and 1 mM dithiothreitol (added fresh on the day assay is preformed). “Stop buffer” is composed of 100 mM Na—O(O)CCH2Cl and 30 mM sodium acetate which is brought to pH 2.5 with glacial acetic acid. Thrombin was purchased from Sigma (cat #T-3399). Thrombin substrate III fluorogenic was purchased from ICN (cat #195915). Sodium acetate, dithiothreitol, and Brij-35 were purchased from Sigma. Sodium monochloroacetate was purchased from Lancaster 223-498-3. Glacial acetic acid was purchased from Alfa Aesar (cat # 33252). Thrombin was stored at −20° C. Thrombin substrate fluorogenic was stored at −20° C. (5 mM in DMSO).

inhibition at 50 µM | inhibition at 100 µM | SMILES
10 to 39% | 40 to 74% | COc1ccc(CNC(=O)c2cc(Cl)ccc2NC(=O)c2n[nH]c3ccccc23)cc1OC [Example B1]
10 to 39% | 40 to 74% | CCCCN(CCCC)CCCNC(=O)c1cc(Cl)ccc1NC(=O)c1n[nH]c2ccccc12 [Example B2]
10 to 39% | 40 to 74% | CC(NC(=O)C(NC(=O)c1n[nH]c2ccccc12)C1CCNCC1)c1ccccc1 (stereo not drawn) [Example B3]
